Experimental data taken from patent US8952024B2, “Herbicidal pyrimidone derivatives” (E I du Pont de Nemours and Company, priority 2009, dated 2015).

How the values were obtained:
Assay type in all cases: in vivo
[1] = test system: velvetleaf (Abutilon theophrasti); test: Test A pre-/postemergence plant response
Summary of the method: (§1)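 Pre: directed soil spray on seeded loam/sand blend. Post: same formulation (non-phytotoxic solvent + surfactant) on 2–10 cm plants, 1–2 leaf stage. Greenhouse ~10 d; visual injury score 0–100 vs untreated.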

[2] = test system: wheat (Triticum aestivum); test: Test A pre-/postemergence plant response
Summary of the method: as §1

[3] = test system: barnyardgrass (Echinochloa crus-galli); test: Test A pre-/postemergence plant response
Summary of the method: as §1

corn (Zea mays) = test: Test A pre-/postemergence plant response
Summary of the method: as §1

[4] = test system: pigweed (Amaranthus retroflexus); test: Test A pre-/postemergence plant response
Summary of the method: as §1

[5] = test system: giant foxtail (Setaria faberii); test: Test A pre-/postemergence plant response
Summary of the method: as §1

[6] = test system: morningglory (Ipomoea spp.); test: Test A pre-/postemergence plant response
Summary of the method: as §1

[7] = test system: large crabgrass (Digitaria sanguinalis); test: Test A pre-/postemergence plant response
Summary of the method: as §1

[8] = test system: chickweed (Stellaria media); test: Test B postemergence plant response; settings: for Chickweed plant response rating (0 to 100 scale): 62 g ai/ha, 0 is no effect, 13 to 15 days
Summary of the method: (§2)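 Visual ratings from 0 (no effect) to 100 (complete control), made against controls 13–15 days after treatment, kept in a greenhouse. Compounds were applied postemergence to potted plants at the 1- to 4-leaf stage (2–18 cm).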

[9] = test system: windgrass (Apera spica-venti); test: Test B postemergence plant response; settings: for Windgrass plant response rating (0 to 100 scale): 62 g ai/ha, 0 is no effect, 13 to 15 days
Summary of the method: as §2

[10] = test system: winter barley (Hordeum vulgare); test: Test B postemergence plant response; settings: for Barley plant response rating (0 to 100 scale): 62 g ai/ha, 0 is no effect, 13 to 15 days
Summary of the method: as §2

[11] = test system: canarygrass (Phalaris minor); test: Test B postemergence plant response; settings: for Canarygrass plant response rating (0 to 100 scale): 62 g ai/ha, 0 is no effect, 13 to 15 days
Summary of the method: as §2

[12] = Postemergence, 125 g ai/ha, 0 to 100 scale where 0 is no effect and 100 is complete control
[13] = Postemergence, 500 g ai/ha, 0 to 100 scale, 0 = no effect, 100 = complete control, approx. ten days
[14] = Preemergence, 125 g ai/ha, 0 to 100 scale, 0 = no effect, 100 = complete control
[15] = Preemergence, 500 g ai/ha, visual injury, 0 to 100 scale (0 no effect, 100 complete control), approx. ten days
[16] = 31 g ai/ha, postemergence, scale 0 to 100, 0 is no effect, 100 is complete control
[17] = postemergence, 100 is complete control
[18] = Postemergence, 125 g ai/ha, visual rating after 13 to 15 days, scale 0 (no effect) to 100 (complete control)
[19] = Postemergence, 250 g ai/ha, scale 0 to 100 (0 no effect, 100 complete control)

CCCCCn1c(-c2ccccc2)ncc(C(=O)C2=C(O)CCCC2=O)c1=O [Compound 89]
70: Plant response rating, Velvetleaf [1, 14] | Plant response rating, Foxtail, Giant [5, 15] | Plant response rating, Morningglory [6, 15]
75: Plant response rating, Chickweed [8, 16]
30: Plant response rating, Wheat [2, 15]
10: Plant response rating, Corn (corn (Zea mays); [13]) | Plant response rating, Barley [10, 18] | Plant response rating, Canarygrass [11, 16]
80: Plant response rating, Barnyardgrass [3, 15] | Chickweed plant response rating (0 to 100 scale) [8, 17]
100: Plant response rating, Velvetleaf [1, 12] | Plant response rating, Velvetleaf [1, 13] | Plant response rating, Velvetleaf [1, 15] | Plant response rating, Pigweed [4, 12] | Plant response rating, Pigweed [4, 13] | Plant response rating, Pigweed [4, 15] | Plant response rating, Morningglory [6, 12] | Plant response rating, Morningglory [6, 13] | Plant response rating, Crabgrass, Large [7, 13]
98: Plant response rating, Chickweed [8, 18] | Plant response rating, Chickweed [8, 19]
5: Windgrass plant response rating (0 to 100 scale) [9, 17] | Barley plant response rating (0 to 100 scale) [10, 17]
50: Plant response rating, Windgrass [9, 19] | Plant response rating, Canarygrass [11, 18]
90: Plant response rating, Barnyardgrass [3, 12] | Plant response rating, Barnyardgrass [3, 13] | Plant response rating, Pigweed [4, 14] | Plant response rating, Foxtail, Giant [5, 13] | Plant response rating, Crabgrass, Large [7, 12] | Plant response rating, Crabgrass, Large [7, 15]
35: Canarygrass plant response rating (0 to 100 scale) [11, 17]
60: Plant response rating, Foxtail, Giant [5, 12] | Plant response rating, Crabgrass, Large [7, 14] | Plant response rating, Canarygrass [11, 19]
20: Plant response rating, Wheat [2, 13] | Plant response rating, Barnyardgrass [3, 14] | Plant response rating, Foxtail, Giant [5, 14] | Plant response rating, Barley [10, 19]
0: Plant response rating, Wheat [2, 12] | Plant response rating, Wheat [2, 14] | Plant response rating, Corn (corn (Zea mays); [12]) | Plant response rating, Corn (corn (Zea mays); [14]) | Plant response rating, Corn (corn (Zea mays); [15]) | Plant response rating, Morningglory [6, 14] | Plant response rating, Windgrass [9, 16] | Plant response rating, Barley [10, 16]

CC(C)n1c(-c2ccccc2)ncc(C(=O)C2=C(O)CCCC2=O)c1=O [Compound 95]
85: Chickweed plant response rating (0 to 100 scale) [8, 17]
70: Plant response rating, Foxtail, Giant [5, 12] | Plant response rating, Morningglory [6, 14]
0: Plant response rating, Wheat [2, 12] | Plant response rating, Wheat [2, 13] | Plant response rating, Wheat [2, 14] | Plant response rating, Wheat [2, 15] | Plant response rating, Corn (corn (Zea mays); [12]) | Plant response rating, Corn (corn (Zea mays); [14]) | Plant response rating, Corn (corn (Zea mays); [15]) | Plant response rating, Windgrass [9, 16] | Windgrass plant response rating (0 to 100 scale) [9, 17] | Plant response rating, Windgrass [9, 19] | Plant response rating, Barley [10, 16] | Barley plant response rating (0 to 100 scale) [10, 17] | Plant response rating, Barley [10, 18] | Plant response rating, Barley [10, 19] | Plant response rating, Canarygrass [11, 16] | Canarygrass plant response rating (0 to 100 scale) [11, 17] | Plant response rating, Canarygrass [11, 18] | Plant response rating, Canarygrass [11, 19]
60: Plant response rating, Foxtail, Giant [5, 15]
30: Plant response rating, Foxtail, Giant [5, 14]
80: Plant response rating, Barnyardgrass [3, 12] | Plant response rating, Barnyardgrass [3, 15]
75: Plant response rating, Chickweed [8, 16]
50: Plant response rating, Crabgrass, Large [7, 14]
98: Plant response rating, Chickweed [8, 18]
10: Plant response rating, Corn (corn (Zea mays); [13])
100: Plant response rating, Velvetleaf [1, 12] | Plant response rating, Velvetleaf [1, 13] | Plant response rating, Velvetleaf [1, 15] | Plant response rating, Pigweed [4, 12] | Plant response rating, Pigweed [4, 13] | Plant response rating, Pigweed [4, 15] | Plant response rating, Morningglory [6, 12] | Plant response rating, Morningglory [6, 13] | Plant response rating, Chickweed [8, 19]
40: Plant response rating, Barnyardgrass [3, 14]
90: Plant response rating, Velvetleaf [1, 14] | Plant response rating, Barnyardgrass [3, 13] | Plant response rating, Pigweed [4, 14] | Plant response rating, Foxtail, Giant [5, 13] | Plant response rating, Morningglory [6, 15] | Plant response rating, Crabgrass, Large [7, 12] | Plant response rating, Crabgrass, Large [7, 13] | Plant response rating, Crabgrass, Large [7, 15]
